Data on 21 compounds can be found in patent US20230340011A1 (Asteroid Therapeutics, priority 2022, published 2023).

Like-named read-outs stand apart in the source and are kept apart here. A value given as a limit tells only on which side of the number the result lay.

The target in this assay is SREBP-2 (Homo sapiens (Human), UniProt Q12772). The experiment in a line: In vitro assay SREBP-2: PathHunter U2OS SREBP-2 Nuclear Translocation Cell Line, U18666A-stimulated. The class given is cell-based.
The mark [1] stands for this setting: PathHunter U2OS SREBP-2 nuclear translocation cells, U18666A 10 μM, overnight (16 hours).

For the compound `C[C@H](CCC(=O)N(C)C)[C@H]1CC[C@H]2[C@@H]3CC=C4C[C@H](O)CC[C@]4(C)[C@H]3CC[C@]12C` [Example 122, (R)-4-((3R,8S,9S,10R,13R,14S,17R)-3-hydroxy-10,13-dimethyl-2,3,4,7,8,9,10,11,12,13,14,15,16,17-tetradecahydro-1H-cyclopenta[a]phenanthren-17-yl)-N,N-dimethylpentanamide], the IC50 (usually the concentration needed to halve the response being measured) under setting [1] is > 10000 nM. With `C[C@H](CCC(=O)N1CCC(O)(C(F)F)CC1)[C@H]1CC[C@H]2[C@@H]3CC=C4C[C@@H](O)CC[C@]4(C)[C@H]3CC[C@]12C` [Example 128, (R)-1-(4-(difluoromethyl)-4-hydroxypiperidin-1-yl)-4-((3S,8S,9S,10R,13R,14S,17R)-3-hydroxy-10,13-dimethyl-2,3,4,7,8,9,10,11,12,13,14,15,16,17-tetradecahydro-1H-cyclopenta[a]phenanthren-17-yl)pentan-1-one], under setting [1], the IC50 was < 250 nM. On the same count and under the same terms, as for `CCC1(O)CCN(C(=O)CC[C@@H](C)[C@H]2CC[C@H]3[C@@H]4CC=C5C[C@@H](O)CC[C@]5(C)[C@H]4CC[C@]23C)CC1` [Example 129, (R)-1-(4-ethyl-4-hydroxypiperidin-1-yl)-4-((3S,8S,9S,10R,13R,14S,17R)-3-hydroxy-10,13-dimethyl-2,3,4,7,8,9,10,11,12,13,14,15,16,17-tetradecahydro-1H-cyclopenta[a]phenanthren-17-yl)pentan-1-one], the figure is < 250 nM; as for `Cc1cccnc1CC[C@@H](C)[C@H]1CC[C@H]2[C@@H]3CC=C4C[C@@H](O)CC[C@]4(C)[C@H]3CC[C@]12C` [Example 130, (3S,8S,9S,10R,13R,14S,17R)-10,13-dimethyl-17-((R)-4-(3-methylpyridin-2-yl)butan-2-yl)-2,3,4,7,8,9,10,11,12,13,14,15,16,17-tetradecahydro-1H-cyclopenta[a]phenanthren-3-ol], < 250 nM; as for `C=CC1(O)CCN(C(=O)CC[C@@H](C)[C@H]2CC[C@H]3[C@@H]4CC=C5C[C@@H](O)CC[C@]5(C)[C@H]4CC[C@]23C)CC1` [Example 146, (R)-4-((3S,8S,9S,10R,13R,14S,17R)-3-hydroxy-10,13-dimethyl-2,3,4,7,8,9,10,11,12,13,14,15,16,17-tetradecahydro-1H-cyclopenta[a]phenanthren-17-yl)-1-(4-hydroxy-4-vinylpiperidin-1-yl) pentan-1-one], < 250 nM. As for `C#CC1(O)CCN(C(=O)CC[C@@H](C)[C@H]2CC[C@H]3[C@@H]4CC=C5C[C@@H](O)CC[C@]5(C)[C@H]4CC[C@]23C)CC1` [Example 147, (R)-1-(4-ethynyl-4-hydroxypiperidin-1-yl)-4-((3S,8S,9S,10R,13R,14S,17R)-3-hydroxy-10,13-dimethyl-2,3,4,7,8,9,10,11,12,13,14,15,16,17-tetradecahydro-1H-cyclopenta[a]phenanthren-17-yl)pentan-1-one], the IC50 under setting [1] is < 250 nM. On the same count and under the same terms, as for `CCCC1(O)CCN(C(=O)CC[C@@H](C)[C@H]2CC[C@H]3[C@@H]4CC=C5C[C@@H](O)CC[C@]5(C)[C@H]4CC[C@]23C)CC1` [Example 148, (R)-4-((3S,8S,9S,10R,13R,14S,17R)-3-hydroxy-10,13-dimethyl-2,3,4,7,8,9,10,11,12,13,14,15,16,17-tetradecahydro-1H-cyclopenta[a]phenanthren-17-yl)-1-(4-hydroxy-4-propylpiperidin-1-yl) pentan-1-one], the figure is < 250 nM. On to `CC(C)C1(O)CCN(C(=O)CC[C@@H](C)[C@H]2CC[C@H]3[C@@H]4CC=C5C[C@@H](O)CC[C@]5(C)[C@H]4CC[C@]23C)CC1` [Example 149, (R)-4-((3S,8S,9S,10R,13R,14S,17R)-3-hydroxy-10,13-dimethyl-2,3,4,7,8,9,10,11,12,13,14,15,16,17-tetradecahydro-1H-cyclopenta[a]phenanthren-17-yl)-1-(4-hydroxy-4-isopropylpiperidin-1-yl) pentan-1-one], for which the IC50 under setting [1] was < 250 nM. The same measure, in the same setting: as for `C[C@H](CCC(=O)N1CCC(O)(CO)CC1)[C@H]1CC[C@H]2[C@@H]3CC=C4C[C@@H](O)CC[C@]4(C)[C@H]3CC[C@]12C` [Example 150, (R)-4-((3S,8S,9S,10R,13R,14S,17R)-3-hydroxy-10,13-dimethyl-2,3,4,7,8,9,10,11,12,13,14,15,16,17-tetradecahydro-1H-cyclopenta[a]phenanthren-17-yl)-1-(4-hydroxy-4-(hydroxymethyl)piperidin-1-yl)pentan-1-one], the figure is < 250 nM. Still for that read-out and setting: then `C[C@H](CCC(=O)N1CCC(O)(CC(F)(F)F)CC1)[C@H]1CC[C@H]2[C@@H]3CC=C4C[C@@H](O)CC[C@]4(C)[C@H]3CC[C@]12C` [Example 152, (R)-4-((3S,8S,9S,10R,13R,14S,17R)-3-hydroxy-10,13-dimethyl-2,3,4,7,8,9,10,11,12,13,14,15,16,17-tetradecahydro-1H-cyclopenta[a]phenanthren-17-yl)-1-(4-hydroxy-4-(2,2,2-trifluoroethyl)piperidin-1-yl) pentan-1-one], with < 250 nM; and `CCN(CC)C(=O)C(=O)O[C@@H](C)[C@H]1CC[C@H]2[C@@H]3CC=C4C[C@@H](O)CC[C@]4(C)[C@H]3CC[C@]12C` [Example 154, (1S)-1-[(1S,3aS,3bS,7S,9aR,9bS,11aS)-7-hydroxy-9a,11a-dimethyl-1H,2H,3H,3aH,3bH,4H,6H,7H,8H,9H,9aH,9bH,10H,11H,11aH-cyclopenta[a]phenanthren-1-yl]ethyl (diethylcarbamoyl)formate], with < 250 nM; and `COc1cccnc1CC[C@@H](C)[C@H]1CC[C@H]2[C@@H]3CC=C4C[C@@H](O)CC[C@]4(C)[C@H]3CC[C@]12C` [Example 186, (1R,3aS,3bS,7S,9aR,9bS,11aR)-1-[(2R)-4-(3-methoxypyridin-2-yl)butan-2-yl]-9a,11a-dimethyl-1H,2H,3H,3aH,3bH,4H,6H,7H,8H,9H,9aH,9bH,10H,11H,11aH-cyclopenta[a]phenanthren-7-ol], with < 250 nM. Same read-out and setting: as for `C[C@H](CCC(=O)N1CCC(O)(C2CCC2)CC1)[C@H]1CC[C@H]2[C@@H]3CC=C4C[C@@H](O)CC[C@]4(C)[C@H]3CC[C@]12C` [Example 194, (R)-1-(4-cyclobutyl-4-hydroxypiperidin-1-yl)-4-((3S,8S,9S,10R,13R,14S,17R)-3-hydroxy-10,13-dimethyl-2,3,4,7,8,9,10,11,12,13,14,15,16,17-tetradecahydro-1H-cyclopenta[a]phenanthren-17-yl)pentan-1-one], the figure is < 250 nM; as for `COC(=O)N1CCN(C(=O)O[C@@H](C)[C@H]2CC[C@H]3[C@@H]4CC=C5C[C@@H](O)CC[C@]5(C)[C@H]4CC[C@]23C)CC1` [Example 237, 1-(1S)-1-[(1S,3aS,3bS,7S,9aR,9bS,11aS)-7-hydroxy-9a,11a-dimethyl-1H,2H,3H,3aH,3bH,4H,6H,7H,8H,9H,9aH,9bH,10H,11H,11aH-cyclopenta[a]phenanthren-1-yl]ethyl 4-methyl piperazine-1,4-dicarboxylate], < 250 nM. Under setting [1], `CNC(=O)NC[C@@H](C)[C@H]1CC[C@H]2[C@@H]3CC=C4C[C@@H](O)CC[C@]4(C)[C@H]3CC[C@]12C` [Example 239, 1-((S)-2-((3S,8S,9S,10R,13S,14S,17R)-3-hydroxy-10,13-dimethyl-2,3,4,7,8,9,10,11,12,13,14,15,16,17-tetradecahydro-1H-cyclopenta[a]phenanthren-17-yl)propyl)-3-methylurea] yielded an IC50 of 250 to 1000 nM. In the case of `COC(=O)NC[C@@H](C)[C@H]1CC[C@H]2[C@@H]3CC=C4C[C@@H](O)CC[C@]4(C)[C@H]3CC[C@]12C` [Example 240, Methyl ((S)-2-((3S,8S,9S,10R,13S,14S,17R)-3-hydroxy-10,13-dimethyl-2,3,4,7,8,9,10,11,12,13,14,15,16,17-tetradecahydro-1H-cyclopenta[a]phenanthren-17-yl)propyl)carbamate], the IC50 under setting [1] is 250 to 1000 nM. Same read-out and setting: then `C[C@H](OC(=O)N(C)C)[C@H]1CC[C@H]2[C@@H]3CC=C4C[C@@H](O)CC[C@]4(C)[C@H]3CC[C@]12C` [Example 242, (1S)-1-[(1S,3aS,3bS,7S,9aR,9bS,11aS)-7-hydroxy-9a,11a-dimethyl-1H,2H,3H,3aH,3bH,4H,6H,7H,8H,9H,9aH,9bH,10H,11H,11aH-cyclopenta[a]phenanthren-1-yl]ethyl N,N-dimethylcarbamate], with 250 to 1000 nM. Turning to `CNC(=O)O[C@@H](C)[C@H]1CC[C@H]2[C@@H]3CC=C4C[C@@H](O)CC[C@]4(C)[C@H]3CC[C@]12C` [Example 243, (1S)-1-[(1S,3aS,3bS,7S,9aR,9bS,11aS)-7-hydroxy-9a,11a-dimethyl-1H,2H,3H,3aH,3bH,4H,6H,7H,8H,9H,9aH,9bH,10H,11H,11aH-cyclopenta[a]phenanthren-1-yl]ethyl N-methylcarbamate], the IC50 was < 250 nM. For the compound `CNC(=O)c1ccnc(OC[C@@H](C)[C@H]2CC[C@H]3[C@@H]4CC=C5C[C@@H](O)CC[C@]5(C)[C@H]4CC[C@]23C)c1` [Example 254, 2-((S)-2-((3S,8S,9S,10R,13S,14S,17R)-3-hydroxy-10,13-dimethyl-2,3,4,7,8,9,10,11,12,13,14,15,16,17-tetradecahydro-1H-cyclopenta[a]phenanthren-17-yl)propoxy)-N-methylisonicotinamide], under setting [1], the IC50 is < 250 nM. Same read-out and setting: then `CNC(=O)c1cccc(OC[C@@H](C)[C@H]2CC[C@H]3[C@@H]4CC=C5C[C@@H](O)CC[C@]5(C)[C@H]4CC[C@]23C)n1` [Example 256, 6-((S)-2-((3S,8S,9S,10R,13S,14S,17R)-3-hydroxy-10,13-dimethyl-2,3,4,7,8,9,10,11,12,13,14,15,16,17-tetradecahydro-1H-cyclopenta[a]phenanthren-17-yl)propoxy)-N-methylpicolinamide], with 250 to 1000 nM; and `C[C@H](COc1ccc(CO)cn1)[C@H]1CC[C@H]2[C@@H]3CC=C4C[C@@H](O)CC[C@]4(C)[C@H]3CC[C@]12C` [Example 259, (3S,8S,9S,10R,13S,14S,17R)-17-((S)-1-((5-(hydroxymethyl)pyridin-2-yl)oxy)propan-2-yl)-10,13-dimethyl-2,3,4,7,8,9,10,11,12,13,14,15,16,17-tetradecahydro-1H-cyclopenta[a]phenanthren-3-ol], with 250 to 1000 nM.
